{
  "source": "patent US20100017895A1",
  "about": "“Small animal model for hcv replication” (priority 2005, published 2010)",
  "key": {"[1]": {"system": "HCV replicon in T7-11 cells", "test": "Subcutaneous T7-11 replicon cell model in gamma-irradiated SCID mice (bioluminescence, NS5B IFA, RT-PCR, cPARP, Ki67)", "experimental": "Efficacy studies with T7-11 implanted mice were initiated when the bioluminescence signal was stable and approximately two logs above background. […] Control animals received human albumin.\nBILN 2061 was administered at 30 mg/kg once daily starting day 21-post subcutaneous implantation of T7-11 cells.\nCell implantation. Female SCID mice were shaved at the site of cell implantation and gamma-irradiated with 3 Gy either one-day prior to or on the same day as cell implant. For subcutaneous implantation, five million cells in 0.2 ml of HBSS were implanted at the right flank.\nWhole body in vivo imaging. Anesthetized mice were injected intraperitoneally with 150 mg/kg of luciferin (Xenogen Corporation, Alameda, Calif.). After 10-20 minutes, mice were imaged using a CCD camera in the Xenogen IVIS™ imaging system. The bioluminescence signal intensity was quantified using Living Image Software (Xenogen Corporation, Alameda, Calif.).\nStatistical analysis. Differences in bioluminescence signal between control and treatment groups of mice were compared by the two-tailed Mann-Whitney test. Differences in signal among the control, treatment and rebound groups of mice and among combination groups were compared by the nonparametric Kruskal-Wallis test A P-value <0.05 was considered significant."}, "[2]": {"system": "HCV replicon in T7-11 cells", "test": "Liver model with T7-11 replicon cells in gamma-irradiated SCID mice", "type": "in vivo", "conditions": "30 mg/kg SC once daily from day 25 post tumor cell implantation; within three days", "protocol": "To evaluate the efficacy of IFN-α in liver, T7-11 cells were directly injected into one lobe of the liver in gamma irradiated SCID mice. […] To confirm that the luciferase signal was associated with the liver, the locations of tumors were determined by physical examination at the end of study\nThe antiviral effect of BILN 2061 on HCV replication was also examined. BILN 2061 was administered subcutaneously at 30 mg/kg once daily starting day 25-post tumor cell implantation.\nWhole body in vivo imaging."}, "[3]": {"test": "Pharmacokinetic (PK) data, subcutaneous route", "type": "in vivo"}},
  "data": [
    {"substance": "BILN 2061", "values": [
      {"measurement": "signal after treatment was terminated", "setting": "[1]; 30 mg/kg SC QD three days, several days after termination", "value": "returned to the levels similar to the untreated control group"},
      {"measurement": "adverse effect on the replicon-containing cells", "setting": "[1]; 30 mg/kg SC once daily for three days", "value": "did not have any adverse effect on the replicon-containing cells"},
      {"measurement": "decrease of bioluminescence signal compared to the control group", "setting": "[1]; 30 mg/kg SC once daily from day 21, within three days", "value": "approximately two"},
      {"measurement": "fold decrease of mean bioluminescence signal as compared to the control group", "setting": "[1]; two days after treatment, SC daily from day 18, BILN 2061 30 mg/kg and/or IFN-α 15,000 IU", "value": 16, "unit": "fold"},
      {"measurement": "fold decline in bioluminescence compared to the untreated control group", "setting": "[2]", "value": 10, "unit": "fold"},
      {"measurement": "duration of sustained plasma exposure", "setting": "[3]", "value": "more than 24 hr"}
    ]},
    {"substance": "Interleukin 2 [IL-2]", "values": [
      {"measurement": "effect on bioluminescence signal", "setting": "[1]; 1 mg/kg, over 5 days of treatment", "value": "no effect"}
    ]}
  ]
}
